Reference: patent publication US20260124215A1, “METHODS OF TREATMENT OF INTESTINAL INFECTIONS” (THE FRANCIS CRICK INSTITUTE LIMITED, priority 2022, published 2026)

What was measured:
[1] = test system: Cryptosporidium parasites; test: Lapaquistat/Lovastatin combination in Cryptosporidium-infected HCT-8 cells (infection ratio, Opera Phenix); type: cell-based; conditions: HCT-8, 48 hours of infection, infection ratio = number of parasites/number of host cells, drug alone, read-out: IC50 (ability to limit Cryptosporidium growth)
Procedure: Intestinal epithelial cells (HCT-8) were infected with Cryptosporidium parasites and treated with increasing concentrations of Lapaquistat acetate or Lovastatin, either alone or in combination. After 48 hours of infection, cells were then fixed and stained with a lectin that specifically marks parasites and a Hoechst dye that specifically labels DNA. Cells and parasites were then visualized with an Opera Phenix imaging microscope and infection ratio was calculated as number of parasites/number of host cells.

Cryptosporidium = conditions: malnourished and immunocompromised patients; cited from earlier work
Cryptosporidium parvum = test: In vitro IC50 curves in Cryptosporidium-infected HCT-8 intestinal epithelial cell monolayers (imaging of total and female parasites); type: cell-based; conditions: infected intestinal epithelial cells; development measured by % female parasites in total parasites; figure legends
Procedure: HCT-cells (ATCC; CCL-244) were seeded in a 96-well plate at a density of 30,000 cells/well in complete media (RPMI with 10% FCS) and allowed to grow for 48 hours. Cryptosporidium parvum oocysts (Bunchgrass Farms; Dreary Idaho, USA) were prepared for infection by bleach treating (1% sodium hypochlorite) on ice for 5 minutes to remove bacterial contaminants, followed by a wash step and incubation in 0.75% sodium taurocholate for 10 minutes at 37° C. to trigger excystation. Oocysts were resuspended in infection media (RPMI with 1% FCS) and added to cells in 100 uL media (20,000 oocysts/well). A 10 mM solution of lapaquistat acetate (MedChem Express; Cat. No. HY-16274-1 mg) was created using DMSO as the solvent. From this stock, a half-logarithmic (3.16-fold) dilution series was created in infection media, at 2× the intended final concentration. 3 hours post-infection, 100 uL of each drug dilution was added to the wells. Each drug concentration comprised 6 technical replicates. […] The plate was then imaged using a Cytation cell imaging multimode reader (BioTek) to count host nuclei, total number of parasites, and the number of female parasites among them. […]

For `CC[C@H](C)C(=O)O[C@H]1C[C@@H](C)C=C2C=C[C@H](C)[C@H](CC[C@@H]3C[C@@H](O)CC(=O)O3)[C@H]21` [Lovastatin], the IC50 [1] was 4.1 µM.
In the case of `CC(=O)Oc1ccccc1C(=O)Nc1ncc([N+](=O)[O-])s1` [nitazoxanide], the efficacy in patients (Cryptosporidium) is given as “limited efficacy”.
For `F/C(COc1ccc2c(c1)[nH]c1ccccc12)=C1/CN2CCC1CC2` [YM-53601], the “efficacy against parasite growth and parasite development” value (Cryptosporidium parvum) was “show efficacy”.
